Patent publication EP0771801B1, “Chromane derivatives” (AMERICAN HOME PRODUCTS CORPORATION, priority 1995, dated 1997)
Like-named read-outs stand apart in the source and are kept apart here.

What was measured:
dopamine autoreceptor = target: T1, dopamine autoreceptor (Rattus norvegicus, UniProt P61169); assay: Affinity for the dopamine autoreceptor: [3H]-quinpirole binding in homogenized rat striatal brain tissue; conditions: for IC50: [3H]-quinpirole, rat striatal brain tissue, read-out: IC50 (nM) D2 Quin.; for Ratio antagonist: ratio of D2 Spiper IC50 to D2 Quin. IC50 (LowAg/HighAg, predicts intrinsic activity)
T1 construct: from tissue; host or cells: rat striatal brain tissue homogenate
Protocol: Affinity for the dopamine autoreceptor was established by a modification of the standard experimental test procedure of Seemen and Schaus, European Journal of Pharmacology 203: 105-109, 1991, wherein homogenized rat striatal brain tissue is incubated with [^3H]-quinpirole (Quin.) at various concentrations of test compound, filtered, washed and counted in a Betaplate scintillation counter.

5-HT1a = target: T2, 5-HT1a (Homo sapiens, UniProt P08908); assay: 5-HT1a binding (method not described)
T2 sequence (P08908 1-422): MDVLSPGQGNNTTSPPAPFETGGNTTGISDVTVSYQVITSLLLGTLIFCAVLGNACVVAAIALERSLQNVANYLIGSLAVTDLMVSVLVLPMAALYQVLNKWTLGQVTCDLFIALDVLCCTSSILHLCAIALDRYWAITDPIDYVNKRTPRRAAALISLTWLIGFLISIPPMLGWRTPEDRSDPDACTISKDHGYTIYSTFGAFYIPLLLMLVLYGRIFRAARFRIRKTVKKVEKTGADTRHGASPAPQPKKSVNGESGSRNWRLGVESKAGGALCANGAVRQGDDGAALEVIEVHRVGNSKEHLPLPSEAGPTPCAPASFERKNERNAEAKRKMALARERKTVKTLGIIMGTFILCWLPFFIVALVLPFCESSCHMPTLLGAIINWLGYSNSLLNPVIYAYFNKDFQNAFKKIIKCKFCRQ

α1 = α1 binding (method not described)

T1 sequence (P61169 whole entry): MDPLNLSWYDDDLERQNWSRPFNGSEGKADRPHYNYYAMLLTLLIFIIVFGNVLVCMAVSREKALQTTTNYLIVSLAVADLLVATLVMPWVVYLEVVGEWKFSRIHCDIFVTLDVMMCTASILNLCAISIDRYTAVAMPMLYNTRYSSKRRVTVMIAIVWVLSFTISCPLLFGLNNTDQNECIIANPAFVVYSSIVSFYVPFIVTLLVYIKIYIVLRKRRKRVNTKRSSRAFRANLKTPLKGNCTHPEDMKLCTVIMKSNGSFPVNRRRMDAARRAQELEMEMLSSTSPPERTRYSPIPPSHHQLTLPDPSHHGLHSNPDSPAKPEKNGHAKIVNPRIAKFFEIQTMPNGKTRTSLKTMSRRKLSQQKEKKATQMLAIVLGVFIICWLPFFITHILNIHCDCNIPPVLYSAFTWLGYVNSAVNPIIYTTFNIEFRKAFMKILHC

| IC50 (5-HT1a; read-out: IC50 (nM) 5-HT1a.) [nM] | Structure (SMILES) | IC50 (dopamine autoreceptor) [nM] | Ratio antagonist (dopamine autoreceptor) | IC50 (α1) [nM] | IC50 (5-HT1a; IC50 (nM) 5-HT1a.) [nM] |
| --- | --- | --- | --- | --- | --- |
| 7.53 | O=C1Cc2c(ccc3c2OC(CNCc2ccc(Cl)cc2)CC3)N1 (centres unmarked) [Example 1e, 2-(4-Chloro-benzylamino-methyl)-3,4,7,9-tetrahydro-2H-pyrano[2,3-e]indol-8-one] | 0.64 | 233 | 184 |  |
|  | Cc1ccc(CNCC2CCc3ccc4c(c3O2)CC(=O)N4)c(C)c1 (centres unmarked) [Example 1f, 2-(2,4-Dimethyl-benzylamino-methyl)-3,4,7,9-tetrahydo-2H-pyrano[2,3-e]indol-8-one] | 2.62 | 150 | 81 | 15 |
| 16 | O=C1Cc2c(ccc3c2OC(CNCc2ccc(F)cc2)CC3)N1 (centres unmarked) [Example 1b, 2-(4-Fluoro-benzylamino-methyl)-3,4,7,9-tetrahydro-2H-pyrano[2,3-e]indol-8-one] | 0.83 | 375 | 352 |  |
| 38 | COc1ccc(CNCC2CCc3ccc4c(c3O2)CC(=O)N4)cc1 (centres unmarked) [Example 1c, 2-(4-Methoxy-benzylamino-methyl)-3,4,7,9-tetrahydro-2H-pyrano[2,3-e]indol-8-one] | 0.96 | 307 | 258 |  |
| 10 | Cc1ccc(CNCC2CCc3ccc4c(c3O2)CC(=O)N4)cc1 (centres unmarked) [Example 1d, 2-(4-Methyl-benzylamino-methyl)-3,4,7,9-tetrahydro-2H-pyrano[2,3-e]indol-8-one] | 0.45 | 229 | 194 |  |

| Structure (SMILES) | IC50 (5-HT1a; read-out: IC50 (nM) 5-HT1a.) [nM] | IC50 (dopamine autoreceptor) [nM] | Ratio antagonist (dopamine autoreceptor) | IC50 (α1) [nM] | IC50 (5-HT1a; IC50 (nM) 5-HT1a.) [nM] |
| --- | --- | --- | --- | --- | --- |
| O=C1Cc2c(ccc3c2OC(CNCc2ccccc2)CC3)N1 (single isomer, unassigned; (+)) [Example 2a, (+)-2-(benzylamino-methyl)-3,4,7,9-tetrhydro-2H-pyrano[2,3-e]indol-8-one] | 330 | 16.4 | 45 | 519 |  |
| O=C1Cc2c(ccc3c2OC(CNCc2ccccc2)CC3)N1 (centres unmarked) [Example 1a, 2-(Benzylamino-methyl)-3,4,7,9-tetrahydro-2H-pyrano-[2,3-e]indol-8-one] | 34 | 0.73 | 194 | 244 |  |
| O=C1Cc2c(ccc3c2OC(CNCc2ccccc2)CC3)N1 (single isomer, unassigned; (-)) [Example 2b, (-)-2-(benzylamino-methyl)-3,4,7,9-tetrhydro-2H-pyrano[2,3-e]indol-8-one] | 17.1 | 0.27 | 265 | 330 |  |
